Data as given in ChEMBL document CHEMBL4422677, “Prenylated Diresorcinols Inhibit Bacterial Quorum Sensing” (J Nat Prod, 2019).
pIC50: −log10 of the molar value. Active and inactive are the calls of the source. The calls are words filed in the database; no cut-off is given here.

Key:
[1] = Inhibition of Staphylococcus aureus USA300 LAC quorum sensing system Agr assessed as reduction in AIP production measured after 5 hrs by UPLC-MS analysis; set-up: species or system Staphylococcus aureus subsp. aureus USA300
[2] = molecular target: T1, Accessory gene regulator protein A (Staphylococcus aureus) (UniProt P0A0I7); assay: Inhibition of Staphylococcus aureus USA300 LAC quorum sensing system AgrA assessed as reduction in RNA3 transcription at 9 to 16 uM after 5 hrs by RNA protect cell reagent based qRT-PCR analysis; conditions: Staphylococcus aureus subsp. aureus USA300
T1 sequence (whole entry): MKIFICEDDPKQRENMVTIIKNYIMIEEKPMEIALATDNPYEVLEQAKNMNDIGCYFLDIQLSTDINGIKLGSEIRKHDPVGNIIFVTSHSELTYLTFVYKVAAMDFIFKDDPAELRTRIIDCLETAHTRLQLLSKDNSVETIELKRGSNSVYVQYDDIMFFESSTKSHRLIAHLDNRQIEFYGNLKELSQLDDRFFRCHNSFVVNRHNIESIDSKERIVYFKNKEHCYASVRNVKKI

[3] = molecular target: T1, Accessory gene regulator protein A (Staphylococcus aureus); assay: Inhibition of Staphylococcus aureus USA300 LAC quorum sensing system AgrA assessed as reduction in psma transcription at 2.9 to 16 uM after 5 hrs by RNA protect cell reagent based qRT-PCR analysis; conditions: Staphylococcus aureus subsp. aureus USA300
[4] = system: Staphylococcus aureus subsp. aureus USA300; assay: Inhibition of Staphylococcus aureus USA300 LAC quorum sensing system Agr assessed as reduction in hla transcription at 2.9 to 16 uM after 5 hrs by RNA protect cell reagent based qRT-PCR analysis
Staphylococcus aureus = assay: Effect on growth of Staphylococcus aureus USA300 LAC measured at 1 hr interval for 5 hrs

| SMILES | pIC50 [1] | inhibition [2] | inhibition [3] | inhibition [4] | Activity (Staphylococcus aureus) |
| --- | --- | --- | --- | --- | --- |
| CCCCC/C=C/C1=C(CO)[C@@H](O)[C@H]2O[C@@]2(C/C=C(\C)C(=O)O)C1=O | 5.89 |  |  |  |  |
| CC(C)=CC1c2c(O)cc(C)cc2Oc2cc(C)cc(O)c21 | 4.90 to 5.20 |  |  |  |  |
| CC(C)=CCc1c(O)cc(C)cc1Oc1cc(C)c(C(=O)O)c(O)c1 | 5.34 |  |  |  |  |
| O=C1c2cc(O)cc(O)c2C(=O)c2c(O)cc(CO)cc21 | 4.90 to 5.20 |  |  |  |  |
| CC(C)=C[C@H]1c2c(O)cc(C)cc2Oc2cc(C)c(C(=O)O)c(O)c21 | 6.52 | Active | Active | Active | Non-Toxic |
